Data from patent publication US10189854B2, “Substituted pyrimidine compounds” (Grünenthal GmbH, priority 2014, dated 2019).
Counter-ions that a name gives are not always drawn.

Key:
human PDE4B1 [1] = biological target: T1, human PDE4B1 (Homo sapiens (Human), UniProt Q07343); assay: TR-FRET assay using the LANCE Ultra cAMP kit to determine the activity of hPDE4B1; type: biochemical; settings: IC50 inhibition of PDE4B, mean
Source text: TR-FRET Assay Using the LANCE® Ultra cAMP Kit to Determine the Activity of hPDE4B1
The effects of the compounds on the activity of the human PDE4B1 was quantified by measuring the production of 5′AMP from cAMP using a human recombinant enzyme expressed in Sf9 cells and the LANCE® Ultra cAMP kit, a TR-FRET detection method from PerkinElmer. The human PDE4B1 enzyme was purchased from SignalChem Lifesciences (Catalog# P92-31BG, Lot# H296-2).
The test compound, reference compound or water (control) was mixed with the enzyme (0.96 U) in a reaction buffer containing 50 mM Tris-HCl, 50 mM MgCl2 and 5 mM DTT (pH 8.5). Thereafter, the reaction was initiated by addition of 500 nM cAMP (substrate) and the mixture was incubated for 30 minutes at room temperature. For control basal measurements, the enzyme was omitted from the reaction mixture. After 30 minutes, the reaction was stopped and diluted by a factor of 100 with the reaction buffer supplemented with 500 μM IBMX. The fluorescence donor (europium chelate-labeled cAMP) and the fluorescence acceptor (anti-cAMP antibody labeled with the ULight™ dye) were then added together with 500 μM IBMX to a 10 μl aliquot. After 60 minutes, the fluorescence transfer corresponding to the amount of residual cAMP was measured at λex=337 nm, λem=620 nm and λem=665 nm using a microplate reader (PHERAstar, BMG). The enzyme activity was determined by dividing the signal measured at 665 nm by that measured at 620 nm (ratio) multiplied by 10000. The results were expressed as percent inhibition of the control enzyme activity. IC50 values (IC50=concentration causing a half-maximal inhibition of control specific activity) were derived from dose response measurements with ten different concentrations (n=3; N=1-3).
Several compounds according to the invention are tested with above mentioned assay.

human PDE4B1 [2] = biological target: T1, human PDE4B1; assay: cAMP HTRF assay to determine the activity of hPDE4B1; type: biochemical; settings: IC50 inhibition of PDE4B; human recombinant PDE4B1, cAMP HTRF assay
Summary of the method: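 Recombinant human PDE4B1 expressed in Sf9 cells (4.8 U) was incubated with 40 nM cAMP for 30 min at room temperature in Tris buffer, pH 7.8, with MgCl2, DTT and Tween 20. HTRF detection of remaining cAMP followed, with 1 mM IBMX stop, read 60 min later as the 665/620 nm ratio. Results are % inhibition versus control.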

T1 sequence (Q07343 whole entry): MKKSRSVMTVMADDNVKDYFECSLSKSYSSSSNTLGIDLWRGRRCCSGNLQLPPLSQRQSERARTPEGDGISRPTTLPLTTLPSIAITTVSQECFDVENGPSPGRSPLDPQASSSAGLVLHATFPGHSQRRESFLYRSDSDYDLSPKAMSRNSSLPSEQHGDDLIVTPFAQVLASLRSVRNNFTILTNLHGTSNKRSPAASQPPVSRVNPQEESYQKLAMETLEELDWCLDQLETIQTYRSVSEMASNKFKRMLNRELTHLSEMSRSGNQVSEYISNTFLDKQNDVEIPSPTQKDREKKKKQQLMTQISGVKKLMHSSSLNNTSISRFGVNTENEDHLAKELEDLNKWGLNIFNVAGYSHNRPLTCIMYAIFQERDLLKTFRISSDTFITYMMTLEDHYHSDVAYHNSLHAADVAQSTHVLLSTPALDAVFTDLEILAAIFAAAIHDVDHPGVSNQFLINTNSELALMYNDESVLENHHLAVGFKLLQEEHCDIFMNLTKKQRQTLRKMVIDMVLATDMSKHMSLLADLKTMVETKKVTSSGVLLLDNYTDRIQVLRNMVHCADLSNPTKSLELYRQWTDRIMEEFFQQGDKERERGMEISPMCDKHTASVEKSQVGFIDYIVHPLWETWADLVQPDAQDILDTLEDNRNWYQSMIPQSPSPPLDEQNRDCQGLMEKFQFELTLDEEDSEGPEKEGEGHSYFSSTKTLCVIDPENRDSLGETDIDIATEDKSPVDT

Compound | IC50 (human PDE4B1 [1]) | IC50 (human PDE4B1 [2])
NC(=O)CN1CCN(C(=O)c2ccc3c(c2)N(c2ncc(-c4ccccc4F)cn2)CC32CC2)CC1 [Compound 236, 2-[4-[1-[5-(2-Fluorophenyl)-pyrimidin-2-yl]-spiro[1,2-dihydro-indole-3,1′-cyclopropane]-6-carbonyl]-piperazin-1-yl]-acetamide] | 0.1 to 1 µM | –
C[C@H](O)CN1CCN(C(=O)c2ccc3c(c2)N(c2ncc(-c4ccccc4F)cn2)CC32CC2)CC1 [Compound 240, [1-[5-(2-Fluorophenyl)-pyrimidin-2-yl]-spiro[1,2-dihydro-indole-3,1′-cyclopropane]-6-yl]-[4-[(2S)-2-hydroxy-propyl]-piperazin-1-yl]-methanone] | 0.1 to 1 µM | –
CC[S+]([O-])c1cccc(-c2cnc(N3CC4(CC4)c4ccc(C(=O)N(C)CCO)cc43)nc2)c1 (stereo not shown) [Compound 341, 1-[5-[3-(Ethylsulfinyl)-phenyl]-pyrimidin-2-yl]-N-(2-hydroxy-ethyl)-N-methyl-spiro[1,2-dihydro-indole-3,1′-cyclopropane]-6-carboxylic acid amide] | < 0.1 µM | –
CCc1ccnc(-c2cnc(N3CC4(CC4)c4ccc(C(=O)N(C)CC(N)=O)cc43)nc2)c1 [Compound 308, N-(Carbamoyl-methyl)-1-[5-(4-ethyl-pyridin-2-yl)-pyrimidin-2-yl]-N-methyl-spiro[1,2-dihydro-indole-3,1′-cyclopropane]-6-carboxylic acid amide] | < 0.1 µM | –
CN(CCO)C(=O)c1ccc2c(c1)N(c1ncc(-c3cc(C(C)(C)O)ccn3)cn1)CC21CC1 [Compound 314, N-(2-Hydroxy-ethyl)-1-[5-[4-(1-hydroxy-1-methyl-ethyl)-pyridin-2-yl]-pyrimidin-2-yl]-N-methyl-spiro[1,2-dihydro-indole-3,1′-cyclopropane]-6-carboxylic acid amide] | < 0.1 µM | –
CS(=O)(=O)c1ccnc(-c2cnc(N3CC4(CC4)c4ccc(C(=O)N5CCOCC5)cc43)nc2)c1 [Compound 345, [1-[5-(4-Methylsulfonyl-pyridin-2-yl)-pyrimidin-2-yl]-spiro[1,2-dihydro-indole-3,1′-cyclopropane]-6-yl]-morpholin-4-yl-methanone] | < 0.1 µM | –
O=C(c1ccc2c(c1)N(c1ncc(-c3ccccc3F)cn1)CC21CC1)N1CCCC(O)C1 (stereo not shown) [Compound 96, [1-[5-(2-Fluorophenyl)-pyrimidin-2-yl]-spiro[1,2-dihydro-indole-3,1′-cyclopropane]-6-yl]-(3-hydroxy-piperidin-1-yl)-methanone] | – | < 0.1 µM
[1-[5-(2-Methyl-pyrimidin-4-yl)-pyrimidin-2-yl]-spiro[1,2-dihydro-indole-3,1′-cyclopropane]-6-yl]-morpholin-4-yl-methanone [Compound 185] | – | < 0.1 µM
N#Cc1ccc(-c2cnc(N3CC4(CC4)c4ccc(C(=O)N5CCOCC5)cc43)nc2)s1 [Compound 143, 5-[2-(6-(Morpholine-4-carbonyl)-spiro[1,2-dihydro-indole-3,1′-cyclopropane]-1-yl]-pyrimidin-5-yl]-thiophene-2-carbonitrile] | – | < 0.1 µM
Cc1cc(-c2cnc(N3CC4(CC4)c4ccc(C(=O)N(C)CCO)cc43)nc2)ccn1 [Compound 214, N-(2-Hydroxy-ethyl)-N-methyl-1-[5-(2-methyl-pyridin-4-yl)-pyrimidin-2-yl]-spiro[1,2-dihydro-indole-3,1′-cyclopropane]-6-carboxylic acid amide] | – | < 0.1 µM
Morpholin-4-yl-[1-(5-pyridazin-4-yl-pyrimidin-2-yl)-spiro[1,2-dihydro-indole-3,1′-cyclopropane]-6-yl]-methanone [Compound 200] | – | < 0.1 µM
CN(C)C(=O)c1ccc2c(c1)N(c1ncc(-c3cccnc3F)cn1)CC21CC1 [Compound 174, 1-[5-(2-Fluoro-pyridin-3-yl)-pyrimidin-2-yl]-N,N-dimethyl-spiro[1,2-dihydro-indole-3,1′-cyclopropane]-6-carboxylic acid amide] | – | < 0.1 µM
O=C(O)C1CCN(C(=O)c2ccc3c(c2)N(c2ncc(-c4ccccc4F)cn2)CC32CC2)CC1 [Compound 215, 1-[1-[5-(2-Fluorophenyl)-pyrimidin-2-yl]-spiro[1,2-dihydro-indole-3,1′-cyclopropane]-6-carbonyl]-piperidine-4-carboxylic acid] | – | 1 to 10 µM

Continued, values first:

IC50 (human PDE4B1 [1]) | IC50 (human PDE4B1 [2]) | Compound
< 0.1 µM | – | Nc1ccnc(-c2cnc(N3CC4(CC4)c4ccc(C(=O)N5CC6CC5CN6)cc43)nc2)c1 (stereo not shown) [Compound 263, [1-[5-(4-Amino-pyridin-2-yl)-pyrimidin-2-yl]-spiro[1,2-dihydro-indole-3,1′-cyclopropane]-6-yl]-(2,5-diazabicyclo[2.2.1]heptan-2-yl)-methanone dihydrochloride]
< 0.1 µM | – | CN(CCO)C(=O)c1ccc2c(c1)N(c1ncc(-c3cccnn3)cn1)CC21CC1 [Compound 262, N-(2-Hydorxy-ethyl)-N-methyl-1-(5-pyridazin-3-yl-pyrimidin-2-yl)-spiro[1,2-dihydro-indole-3,1′-cyclopropane]-6-carboxylic acid amide]
< 0.1 µM | – | CN(CCO)C(=O)c1ccc2c(c1)N(c1ncc(-c3nc(CC#N)cs3)cn1)CC21CC1 [Compound 350, 1-[5-[4-(Cyano-methyl)-thiazol-2-yl]-pyrimidin-2-yl]-N-(2-hydroxy-ethyl)-N-methyl-spiro[1,2-dihydro-indole-3,1′-cyclopropane]-6-carboxylic acid amide]
< 0.1 µM | – | Cc1ccnc(-c2cnc(N3CC4(CC4)c4ccc(C(=O)N5CCNC(=O)C5)cc43)nc2)c1 [Compound 222, 4-[1-[5-(4-Methyl-pyridin-2-yl)-pyrimidin-2-yl]-spiro[1,2-dihydro-indole-3,1′-cyclopropane]-6-carbonyl]-piperazin-2-one]
< 0.1 µM | – | CN(C)c1ccnc(-c2cnc(N3CC4(CC4)c4ccc(C(=O)N5C[C@@H]6C[C@H]5CN6)cc43)nc2)c1 [Compound 302, [(1S,4S)-2,5-Diazabicyclo[2.2.1]heptan-2-yl]-[1-[5-(4-dimethylamino-pyridin-2-yl)-pyrimidin-2-yl]-spiro[1,2-dihydro-indole-3,1′-cyclopropane]-6-yl]-methanone]
< 0.1 µM | – | Cc1ccnc(-c2cnc(N3CC4(CC4)c4ccc(C(=O)N5CC[C@@H](N)C5)cc43)nc2)c1 [Compound 334, [(3R)-3-Amino-pyrrolidin-1-yl]-[1-[5-(4-methyl-pyridin-2-yl)-pyrimidin-2-yl]-spiro[1,2-dihydro-indole-3,1′-cyclopropane]-6-yl]-methanone]
< 0.1 µM | – | O=C(c1ccc2c(c1)N(c1ncc(-c3cc(N4CCCC4)ccn3)cn1)CC21CC1)N1CCOCC1 [Compound 291, Morpholin-4-yl-[1-[5-(4-pyrrolidin1--yl-pyridin-2-yl)-pyrimidin-2-yl]-spiro[1,2-dihydro-indole-3,1′-cyclopropane]-6-yl]-methanone]
< 0.1 µM | – | CCc1ccnc(-c2cnc(N3CC4(CC4)c4ccc(C(=O)N(C)C)cc43)nc2)c1 [Compound 270, 1-[5-(4-Ethyl-pyridin-2-yl)-pyrimidin-2-yl]-N,N-dimethyl-spiro[1,2-dihydro-indole-3,1′-cyclopropane]-6-carboxylic acid amide]
< 0.1 µM | – | C[C@@H](O)CN(C)C(=O)c1ccc2c(c1)N(c1ncc(-c3ccccc3F)cn1)CC21CC1 [Compound 283, 1-[5-(2-Fluorophenyl)-pyrimidin-2-yl)-N-[(2R)-2-hydroxy-propyl]-N-methyl-spiro[1,2-dihydro-indole-3,1′-cyclopropane]-6-carboxylic acid amide]
< 0.1 µM | – | CCNc1ccc(F)c(-c2cnc(N3CC4(CC4)c4ccc(C(=O)N(C)CCO)cc43)nc2)c1 [Compound 343, 1-[5-(5-Ethylamino-2-fluoro-phenyl)-pyrimidin-2-yl]-N-(2-hydroxy-ethyl)-N-methyl-spiro[1,2-dihydro-indole-3,1′-cyclopropane]-6-carboxylic acid amide]
< 0.1 µM | – | C[C@H](O)CN(C)C(=O)c1ccc2c(c1)N(c1ncc(-c3ccccc3F)cn1)CC21CC1 [Compound 284, 1-[5-(2-Fluorophenyl)-pyrimidin-2-yl]-N-[(2S)-2-hydroxy-propyl]-N-methyl-spiro[1,2-dihydro-indole-3,1′-cyclopropane]-6-carboxylic acid amide]
< 0.1 µM | – | Nc1ccnc(-c2cnc(N3CC4(CC4)c4ccc(C(=O)N5C[C@@H]6C[C@H]5CN6)cc43)nc2)c1 [Compound 301, [1-[5-(4-Amino-pyridin-2-yl)-pyrimidin-2-yl]-spiro[1,2-dihydro-indole-3,1′-cyclopropane]-6-yl]-[(1S,4S)-2,5-diazabicyclo[2.2.1]heptan-2-yl]-methanone]
